Columns and labels:
[1] = Pharmacokinetics in Wistar rats; type: in vivo, Wistar rat
Experimental: Five Wistar rats were injected intravenously (IV) with BK124.1 at 5 mg/kg or 10 mg/kg concentration, in 10% Solutol HS15/10% ethanol. The blood was taken from each animal after 5, 15, and 30 min, 1, 2, 6, and 24 h post-injection. Blood BK124.1 concentration was measured using mass spectrometry.

[2] = system: CD34+ cells from CML patients; experiment: MTT viability assay, CML CD34+ cells; type: cell-based; settings: Homo sapiens, 48 h
Experimental: (§1) Blood samples were taken (venipuncture, EDTA-K2 Vacutainer tubes, Becton Dickinson, Franklin Lakes, NJ, USA) from 8 chronic phase CML patients (CML1–CML8; 4 men and 4 women, aged 39–79) diagnosed at the Department of Hematology, University Clinical Center, Medical University of Warsaw, following their written consent. The diagnosis was carried out by qualified clinical staff based on an interview, blood parameters and molecular tests detecting BCR-ABL1 (transcript b3a2). Peripheral blood mononuclear cells were immediately isolated from the fresh blood sample using standard protocol (Supplementary Methods). […]
Cells were seeded in 96-well plates; after 24 h, medium with the appropriate drug concentration was added to each well. […] Absorbance was read using an iMark Microplate absorbance reader (Bio-Rad, Hercules, CA, USA). Results were calculated relative to cells treated with DMSO only.
[…] Next, we isolated CD34+ cells (EasySep™ Human CD34 Positive Selection Kit II, StemCell Technologies, Vancouver, Canada), counted them and assessed viability with Muse Cell Analyzer (Merck Millipore, Burlington, MA, USA). […] The purity of the live CD34+ fraction was assessed by flow cytometry with anti-human CD34-APC antibody, compared with an appropriate isotype control (Biolegend, San Diego, CA, USA), and propidium iodide (Sigma-Aldrich, St. Louis, MO, USA). […]

[3] = system: CD34+ cells from CML patients; experiment: Annexin V apoptosis assay, CML CD34+ cells; type: cell-based; settings: Homo sapiens, 24 h
Experimental: as §1
Cells were seeded in 6-well plates (K562 or K562-MDR1) or in 24-well plates (CD34^+ cells). […] After a further 24 h, cells were stained using the Annexin V-FITC kit for the detection of apoptosis (BD, Franklin Lakes, NJ, USA) and immediately analyzed on a BD FACSCalibur using CellQuest software (BD, Franklin Lakes, NJ, USA). […]
incubated overnight at 37 °C and analyzed using an iMark Microp late absorbance reader (Bio-Rad, Hercules, CA, USA). Results were calculated relative to control cells treated with DMSO only.
[…] Stained cells were immediately analyzed on a BD FACSCalibur using CellQuest softwa re (BD, Franklin Lakes, NJ, USA). […]

**Q.** With `CCC12C(=O)C(CC)(C(c3ccccc3)=C1c1ccccc1)C1C(=O)N(CC(O)CNC(C)C)C(=O)C12` (centres unmarked) [BK124.1, 4-[2-hydroxy-3-(propan-2-ylamino)propyl]-1,7-diethyl-8,9-diphenyl-4-azatricyclo [5.2.1.02,6]dec-8-ene-3,5,10-trione] as the compound, how does the “Time BK124.1 remains detectable in the peripheral blood” value ([1]; IV 10 mg/kg (Figure 1A)) read?
**A.** 24 h

**Q.** What about the half-life ([1]; Wistar, rat, IV 10 mg/kg, blood) of the same compound?
**A.** 4.39 h

**Q.** And the IC50 [2]?
**A.** 1.5 µM

**Q.** What about the viability at […] ([3]; 2.5 µM) of the same compound?
**A.** 10%

**Q.** And the viability at 5 µM ([3]; 5 µM)?
**A.** 5%

— publication PMC9332833 (Cancers, 2022)
